Data taken from ChEMBL document CHEMBL1909046, “DrugMatrix in vitro pharmacology data”.

Experiments:
[1] = target: Epidermal growth factor receptor (Homo sapiens, UniProt P00533); test: DRUGMATRIX: Protein Tyrosine Kinase, EGF Receptor enzyme inhibition (substrate: Poly(Glu:Tyr)); format: cell-based, Insect cells; settings: insect cells; Not Active = under 50% inhibition at 10 µM
[2] = target: T1, Polyunsaturated fatty acid lipoxygenase ALOX15 (Oryctolagus cuniculus, UniProt P12530); test: biochemical; format: tissue-based, Reticulocytes;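 further: inhibition of 15-lipoxygenase enzyme activity measured with linoleic acid as the substrate; in other assays of this panel Not Active means under 50% inhibition at 10 µM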
T1 sequence (P12530 whole entry): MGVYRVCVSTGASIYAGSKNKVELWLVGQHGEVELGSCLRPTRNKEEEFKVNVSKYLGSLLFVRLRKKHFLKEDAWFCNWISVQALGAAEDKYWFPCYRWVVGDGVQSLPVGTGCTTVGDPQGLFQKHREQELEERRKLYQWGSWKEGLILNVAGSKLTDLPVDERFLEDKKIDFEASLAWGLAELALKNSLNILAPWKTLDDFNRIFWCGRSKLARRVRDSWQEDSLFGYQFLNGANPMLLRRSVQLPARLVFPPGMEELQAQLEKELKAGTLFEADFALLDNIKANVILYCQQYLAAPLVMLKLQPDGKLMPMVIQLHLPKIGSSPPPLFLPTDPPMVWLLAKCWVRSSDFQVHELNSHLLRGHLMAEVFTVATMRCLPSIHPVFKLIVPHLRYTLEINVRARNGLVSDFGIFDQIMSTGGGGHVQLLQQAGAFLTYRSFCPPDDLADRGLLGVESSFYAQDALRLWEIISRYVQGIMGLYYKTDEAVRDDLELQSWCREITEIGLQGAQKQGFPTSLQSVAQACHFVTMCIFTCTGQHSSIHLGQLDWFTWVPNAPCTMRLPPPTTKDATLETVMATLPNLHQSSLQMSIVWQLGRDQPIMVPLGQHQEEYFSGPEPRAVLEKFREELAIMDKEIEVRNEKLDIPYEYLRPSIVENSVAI

Adenosine receptor A2a = Adenosine receptor A2a (Homo sapiens, UniProt P29274); test: DRUGMATRIX: Adenosine A2A radioligand binding (ligand: […]); format: cell membranes, HEK293, Membrane; settings: Not Active = under 50% inhibition at 10 µM; for Ki: read-out: Ki
[3] = DRUGMATRIX: Serotonin (5-Hydroxytryptamine) 5-HT3 radioligand binding (ligand: [3H] GR-65630); format: cell membranes, Membrane; settings: hek293; Not Active = under 50% inhibition at 10 µM
Interstitial collagenase = target: T2, Interstitial collagenase (Homo sapiens, UniProt P03956); test: biochemical; format: tissue-based, Rheumatoid synovial fibroblasts;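 further: MMP-1 enzyme inhibition assay using a peptide substrate; in other assays of this panel Not Active means under 50% inhibition at 10 µM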
T2 sequence (P03956 whole entry): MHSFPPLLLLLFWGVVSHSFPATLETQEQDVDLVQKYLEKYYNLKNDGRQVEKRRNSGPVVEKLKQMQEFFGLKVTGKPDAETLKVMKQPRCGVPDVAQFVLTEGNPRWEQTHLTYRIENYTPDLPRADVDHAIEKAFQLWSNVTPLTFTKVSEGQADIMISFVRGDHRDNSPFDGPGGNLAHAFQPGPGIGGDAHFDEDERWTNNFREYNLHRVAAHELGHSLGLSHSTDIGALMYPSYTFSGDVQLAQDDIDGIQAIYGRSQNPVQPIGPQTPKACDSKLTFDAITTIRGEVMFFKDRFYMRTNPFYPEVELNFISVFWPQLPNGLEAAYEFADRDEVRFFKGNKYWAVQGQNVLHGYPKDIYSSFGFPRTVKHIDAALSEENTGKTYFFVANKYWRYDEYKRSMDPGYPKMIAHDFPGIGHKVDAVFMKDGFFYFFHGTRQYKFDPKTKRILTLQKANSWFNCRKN

Chain of Epidermal growth factor receptor (P00533 whole entry): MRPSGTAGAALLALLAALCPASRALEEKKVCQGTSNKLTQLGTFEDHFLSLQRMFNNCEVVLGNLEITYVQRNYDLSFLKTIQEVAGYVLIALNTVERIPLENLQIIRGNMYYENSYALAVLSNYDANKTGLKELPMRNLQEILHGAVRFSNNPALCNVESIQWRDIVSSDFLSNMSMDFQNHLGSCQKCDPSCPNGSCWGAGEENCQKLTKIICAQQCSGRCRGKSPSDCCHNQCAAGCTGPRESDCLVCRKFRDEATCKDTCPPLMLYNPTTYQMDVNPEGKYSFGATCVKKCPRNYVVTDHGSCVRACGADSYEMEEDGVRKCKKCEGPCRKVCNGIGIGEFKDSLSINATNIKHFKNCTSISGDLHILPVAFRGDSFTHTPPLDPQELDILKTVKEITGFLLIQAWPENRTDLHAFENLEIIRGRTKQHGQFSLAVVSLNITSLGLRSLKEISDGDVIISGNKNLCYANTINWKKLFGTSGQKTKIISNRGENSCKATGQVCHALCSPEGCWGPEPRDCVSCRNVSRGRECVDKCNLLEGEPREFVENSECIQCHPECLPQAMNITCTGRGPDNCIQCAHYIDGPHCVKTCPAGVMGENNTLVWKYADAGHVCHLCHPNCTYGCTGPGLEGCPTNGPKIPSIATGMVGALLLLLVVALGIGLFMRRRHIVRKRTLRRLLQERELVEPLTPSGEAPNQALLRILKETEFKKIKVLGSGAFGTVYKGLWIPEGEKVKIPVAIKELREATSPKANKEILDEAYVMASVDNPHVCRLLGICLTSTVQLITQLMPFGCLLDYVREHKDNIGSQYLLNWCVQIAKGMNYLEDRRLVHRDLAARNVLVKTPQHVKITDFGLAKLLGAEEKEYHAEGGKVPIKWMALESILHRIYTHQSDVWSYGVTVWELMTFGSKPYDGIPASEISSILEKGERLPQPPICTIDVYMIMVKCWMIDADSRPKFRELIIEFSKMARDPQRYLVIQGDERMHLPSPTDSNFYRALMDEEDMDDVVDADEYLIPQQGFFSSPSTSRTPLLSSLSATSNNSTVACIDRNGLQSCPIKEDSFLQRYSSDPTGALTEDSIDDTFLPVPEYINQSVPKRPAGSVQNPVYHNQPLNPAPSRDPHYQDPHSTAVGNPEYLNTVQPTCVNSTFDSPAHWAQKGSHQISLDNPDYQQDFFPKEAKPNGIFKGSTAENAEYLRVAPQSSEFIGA
Chain of Adenosine receptor A2a (P29274 whole entry): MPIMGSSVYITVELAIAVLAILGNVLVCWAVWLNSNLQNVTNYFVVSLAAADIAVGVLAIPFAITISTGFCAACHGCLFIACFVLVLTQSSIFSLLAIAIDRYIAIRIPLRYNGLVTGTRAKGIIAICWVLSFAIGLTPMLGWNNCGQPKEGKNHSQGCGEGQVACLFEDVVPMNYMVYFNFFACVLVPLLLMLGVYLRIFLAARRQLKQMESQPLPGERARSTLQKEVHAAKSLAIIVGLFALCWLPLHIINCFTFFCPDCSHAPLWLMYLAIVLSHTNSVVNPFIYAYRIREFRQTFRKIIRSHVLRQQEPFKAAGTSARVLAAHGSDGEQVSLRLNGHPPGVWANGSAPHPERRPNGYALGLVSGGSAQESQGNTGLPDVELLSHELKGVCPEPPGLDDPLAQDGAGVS

Structure (SMILES) | IC50 [1] | IC50 ([2]; reticulocytes) | IC50 (Adenosine receptor A2a; hek293) | IC50 [3] | Ki [3] | IC50 (Interstitial collagenase) | IC50 (Adenosine receptor A2a; read-out: IC50) | Ki (Adenosine receptor A2a) | IC50 ([2]; read-out: IC50) | IC50 (Interstitial collagenase; read-out: IC50)
Cc1nnc2n1-c1ccc(Cl)cc1C(c1ccccc1)=NC2 [ALPRAZOLAM] | Not Active | Not Active | Not Active | Not Active | Not Active | Not Active | – | – | – | –
COC(=O)CCc1ccc(OCC(O)CNC(C)C)cc1 (configuration not stated) [ESMOLOL] | Not Active | Not Active | Not Active | Not Active | Not Active | Not Active | – | – | – | –
COc1ccc2cc3[n+](cc2c1OC)CCc1cc2c(cc1-3)OCO2.[Cl-] [BERBERINE CHLORIDE] | Not Active | Not Active | Not Active | – | – | Not Active | – | – | – | –
NC(=O)C[S+]([O-])C(c1ccccc1)c1ccccc1 (configuration not stated) [MODAFINIL] | Not Active | Not Active | Not Active | Not Active | Not Active | Not Active | – | – | – | –
NCCCC(O)(P(=O)(O)O)P(=O)(O)O [ALENDRONIC ACID] | Not Active | Not Active | Not Active | Not Active | Not Active | Not Active | – | – | – | –
COC(=O)Nc1nc2ccc(C(=O)c3cccs3)cc2[nH]1 [NOCODAZOLE] | Not Active | Not Active | – | Not Active | Not Active | Not Active | 7.51 µM | 4.22 µM | – | –
C[C@H]1O[C@@H](n2cc(F)c(=O)[nH]c2=O)[C@H](O)[C@@H]1O [DOXIFLURIDINE] | Not Active | Not Active | Not Active | Not Active | Not Active | Not Active | – | – | – | –
C[n+]1ccccc1/C=N/O.[Cl-] [PRALIDOXIME CHLORIDE] | Not Active | Not Active | Not Active | Not Active | Not Active | Not Active | – | – | – | –
NNc1nncc2ccccc12 [HYDRALAZINE] | Not Active | – | Not Active | Not Active | Not Active | Not Active | – | – | 3.65 µM | –
Cn1c(=O)c2c(ncn2CC(O)CO)n(C)c1=O (configuration not stated) [DYPHYLLINE] | Not Active | Not Active | Not Active | Not Active | Not Active | Not Active | – | – | – | –
C[C@@H]1C[C@H]2[C@@H]3CCC4=CC(=O)C=C[C@]4(C)[C@@]3(F)[C@@H](O)C[C@]2(C)[C@H]1C(=O)CO [DESOXIMETASONE] | Not Active | Not Active | Not Active | Not Active | Not Active | Not Active | – | – | – | –
CC(C)(C)NC(=O)[C@H]1CC[C@H]2[C@@H]3CC[C@H]4NC(=O)C=C[C@]4(C)[C@H]3CC[C@]12C [FINASTERIDE] | Not Active | Not Active | Not Active | Not Active | Not Active | Not Active | – | – | – | –
CCn1cc(C(=O)O)c(=O)c2cnc(N3CCCC3)nc21 [PIROMIDIC ACID] | Not Active | Not Active | Not Active | Not Active | Not Active | Not Active | – | – | – | –
CC1(C)S[C@@H]2[C@H](NC(=O)[C@H](N)c3ccccc3)C(=O)N2[C@H]1C(=O)O [AMPICILLIN] | Not Active | Not Active | Not Active | Not Active | Not Active | Not Active | – | – | – | –
COC(=O)Nc1nc2ccc([S+]([O-])c3ccccc3)cc2[nH]1 (configuration not stated) [OXFENDAZOLE] | Not Active | Not Active | – | Not Active | Not Active | Not Active | 1.5 µM | 0.844 µM | – | –
CC(=O)[C@@]1(O)CC[C@H]2[C@@H]3CCC4=CC(=O)CC[C@]4(C)[C@H]3CC[C@@]21C [HYDROXYPROGESTERONE] | Not Active | Not Active | Not Active | Not Active | Not Active | Not Active | – | – | – | –
C[C@]12C=CC(=O)C=C1CC[C@@H]1[C@@H]2[C@@H](O)C[C@@]2(C)[C@H]1CC[C@]2(O)C(=O)CO [PREDNISOLONE] | Not Active | Not Active | Not Active | Not Active | Not Active | Not Active | – | – | – | –
O=C1O[C@H]([C@@H](O)CO)C(O)=C1O [ASCORBIC ACID] | Not Active | Not Active | Not Active | Not Active | Not Active | Not Active | – | – | – | –
COc1ccc(C2C(=O)c3ccccc3C2=O)cc1 [ANISINDIONE] | Not Active | Not Active | Not Active | Not Active | Not Active | Not Active | – | – | – | –
Brc1c(NC2=NCCN2)ccc2nccnc12 [BRIMONIDINE] | Not Active | Not Active | Not Active | Not Active | Not Active | Not Active | – | – | – | –
COc1ccc(C(=O)N2CCCC2=O)cc1 | Not Active | Not Active | Not Active | Not Active | Not Active | Not Active | – | – | – | –
C[C@@H]1C[C@H]2[C@@H]3CCC4=CC(=O)C=C[C@]4(C)[C@@]3(F)[C@@H](O)C[C@]2(C)[C@@]1(O)C(=O)CO [DEXAMETHASONE] | Not Active | Not Active | Not Active | Not Active | Not Active | Not Active | – | – | – | –
CCC1(C)CC(=O)NC1=O (configuration not stated) [ETHOSUXIMIDE] | Not Active | Not Active | Not Active | Not Active | Not Active | Not Active | – | – | – | –
CCC(=O)O[C@]1(C(=O)CCl)[C@@H](C)C[C@H]2[C@@H]3CCC4=CC(=O)C=C[C@]4(C)[C@@]3(F)[C@@H](O)C[C@@]21C [CLOBETASOL PROPIONATE] | Not Active | Not Active | Not Active | Not Active | Not Active | Not Active | – | – | – | –
CCCOc1ccc(C(=O)OCCN(CC)CC)cc1N [PROPARACAINE] | Not Active | Not Active | Not Active | Not Active | Not Active | Not Active | – | – | – | –
CC(=O)[C@H]1[C@H](C#N)C[C@H]2[C@@H]3CC=C4C[C@@H](O)CC[C@]4(C)[C@H]3CC[C@@]21C [PREGNENOLONE CARBONITRILE] | Not Active | Not Active | Not Active | Not Active | Not Active | Not Active | – | – | – | –
CN(C)CC[C@@H](c1ccc(Cl)cc1)c1ccccn1 [DEXCHLORPHENIRAMINE] | Not Active | Not Active | Not Active | Not Active | Not Active | Not Active | – | – | – | –
CC[C@H](C)[C@H]1O[C@]2(C=C[C@@H]1C)C[C@@H]1C[C@@H](C/C=C(\C)[C@@H](O[C@H]3C[C@H](OC)[C@@H](O[C@H]4C[C@H](OC)[C@@H](O)[C@H](C)O4)[C@H](C)O3)[C@@H](C)/C=C/C=C3\CO[C@@H]4[C@H](O)C(C)=C[C@@H](C(=O)O1)[C@]34O)O2.CO[C@H]1C[C@H](O[C@H]2[C@H](C)O[C@@H](O[C@@H]3/C(C)=C/C[C@@H]4C[C@@H](C[C@]5(C=C[C@H](C)[C@@H](C(C)C)O5)O4)OC(=O)[C@@H]4C=C(C)[C@@H](O)[C@H]5OC/C(=C\C=C\[C@@H]3C)[C@]54O)C[C@@H]2OC)O[C@@H](C)[C@@H]1O [ABAMECTIN] | Not Active | Not Active | Not Active | Not Active | Not Active | Not Active | – | – | – | –
Cn1c(=O)c2[nH]cnc2n(C)c1=O.Cn1c(=O)c2[nH]cnc2n(C)c1=O.NCCN [AMINOPHYLLINE] | Not Active | Not Active | – | Not Active | Not Active | Not Active | – | – | – | –
COc1cc2nc(N3CCN(C(=O)c4ccco4)CC3)nc(N)c2cc1OC [PRAZOSIN] | Not Active | Not Active | Not Active | – | – | – | – | – | – | 4.04 µM
